Bridge positions count the residues as written; N and C are the ends. Peptide text beside a SMILES is read from it.
Experiments:
Wistar rat EAE model = assay: EAE (multiple sclerosis) model in Wistar rats induced by GPSCH-CFA, clinical scoring; assay type: in vivo; conditions: 100 µg·kg^-1 subcutaneously once every day, x±s, n=10, score 0-5
Excerpt: Experimental animals: female inbred line Wistar rats (6∼8 week old, body weigh 150±10 g) and guinea pigs (300∼400 g, purchased from Wuhan University Laboratory Animal Center) were selected.
Formulating a mixed emulsion of whole spinal cord homogenate - Freund's complete adjuvant (GPSCH-CFA): a guinea pig was executed, and the spinal cord was rapidly removed, and prepared into 50% PBS homogenate by a ultrasonic disruptor (Sonics & Materials Inc, America), which was mixed with equal amount of Freund's complete adjuvant (BCG vaccine 10 mg/ml), and was pushed back and forth with syringes until forming a water-in-oil emulsion.
Wistar rat EAE model induced by EAE: GPSCH-CFA emulsion was injected intradermally into the foot pads of both the hind legs of Wistar rats, or simultaneously injected intradermally about 1×10^10 pertussis vaccine. The rats were weighed every day, and observed for their neurological symptoms. Experimental autoimmune encephalomyelitis appeared after the rats had been raised for 2 weeks.
The rats with experimental autoimmune encephalomyelitis (EAE) were divided into […] groups randomly: normal control group (negative control group), model control group (model rats + normal saline), administration group A (model rats + ADMR-011 polypeptide), administration group B (model rats + ADMR-016 polypeptide), administration group C (model rats + ADMR-019 polypeptide), administration group D (model rats + ADMR-023 polypeptide), and administration group E (model rats + ADMR-028 polypeptide), 10 rats for each group. For the administration groups, polypeptides ADMR-011, ADMR-016, ADMR-019, ADMR-023 and ADMR-028 were injected subcutaneously respectively at a dose of 100 µg·kg^-1, once every day in the morning. For the normal control group and the model control group, equivalent amount of normal saline was injected subcutaneously, and administered continuously. […] The highest clinical score for each animal was recorded, and the average value of them was taken to be the average clinical score.
The scoring criteria were: without any clinical symptom, 0 point; disappearance of tension in the tail, and observable mild awkward gait, 1 point; weakness in both the hind limbs, which can recover after passive body flipping, 2 points; paralysis in both the hind limbs, which can not recover after passive body flipping, 3 points; tetraplegia accompanied by incontinence of urine and feces, 4 points; moribund state or death, 5 points. Table 1. Scores for rats of various experimental groups in the EAE model (-x±s)

rheumatoid arthritis = assay: pristane-induced rheumatoid arthritis in SD rats, joint score and hind foot plantar swelling; assay type: in vivo; design: key to Score of joint: clinical score 1-4: 1 joint red/swollen=1 ... severe whole-limb arthritis=4; conditions: x±s, n=10; for Score of joint: arthritis rats, polypeptides 100 µg·kg^-1 (methotrexate 1.75 µg·kg^-1) subcutaneously once every day, score 1-4; for The swelling degree after the inflammation: volume difference of hind foot before and after the modeling
Experimental: […] Female (♀) specific pathogen free (SPF) inbred line SD rats (Wuhan University Laboratory Animal Center), body weight 150±10 g, were selected, and pristane was injected intradermally at the base of the tail of rats in experimental groups at a dose of 0.2 ml/rat, after they were acclimatized in a clean-grade environment for 1 week. Rheumatoid arthritis appeared after the rats were raised for only 2 weeks.
The rats having arthritis were randomized into: normal control group (negative control group), model negative control group (model rat + normal saline), model positive control group (model rat + methotrexate), administration group A (model rat + ADMR-011 polypeptide), administration group B (model rat + ADMR-016 polypeptide), administration group C (model rat + ADMR-019 polypeptide), administration group D (model rat + ADMR-023 polypeptide), and administration group E (model rat + ADMR-028 polypeptide), 10 rats for each group. The administration groups were injected subcutaneously at a dose of 100 µg·kg^-1, once every day in the morning, and administered continuously; the normal control group and the model negative control group were injected subcutaneously with equivalent amount of normal saline; and the model positive control group were injected subcutaneously with methotrexate (MTX) at a dose of 1.75 µg·kg^-1, once every day, and administered continuously.
The highest clinical score for each animal was recorded, and the average value of them was taken to be the average clinical score. The scoring criteria were: one joint of a rat was red and swollen, 1 point; two joints of a rat were red and swollen, 2 points; all the joints of a rat were red and swollen, 3 points; severe arthritis in the entire limb of a rat, 4 points. Table 2. Arthritis scores for rats of various experimental groups (-x±s)
From day 8 of the experiment, the hind foot plantar volume of the rat was measured and recorded every other day for 21 consecutive days, and the swelling degree (mL) was calculated according to the volume difference before and after the modeling. Table 3. The swelling degree of rats in various experimental groups (-x±s)

Kunming mice = assay: toxicity study in mice, single intraperitoneal injection, 7 days observation; assay type: in vivo; conditions: 10 mg/kg intraperitoneally once (100 times the dose for animal model), observed 7 days
Experimental: 18∼20 g Kunming mice were selected, and divided into 4 groups, 8 male mice and 8 female mice for each group. The lyophilized powders of scorpion active polypeptides ADMR-011, ADMR-016, ADMR-019, ADMR-023 and ADMR-028 were dissolved with normal saline respectively, and the 3 groups of mice were injected intraperitoneally once respectively with polypeptide solution at a dose of 10 mg/kg (100 times of the dose for animal model), and the fourth group were injected with equivalent amount of normal saline as control.
After the administration, the respiration, motor and heartbeat in animals of all the groups were all normal, without significant abnormal reaction. 7 days after the administration, all the animals were conducted gross anatomy to observe the volume, color and texture of the main organs (heart, liver, spleen, lung, and kidney), and there was no macroscopic lesion. There were no significant difference between the 3 administration groups and the normal saline group.

potassium channel Kv1.3 = target: T1, potassium channel Kv1.3 (Homo sapiens, UniProt P22001); assay: whole-cell patch clamp, inhibition of Kv1.3 current in transfected COS-7 cells; assay type: cell-based; conditions: potassium channel Kv1.3 in COS-7 cells, read-out: polypeptide concentrations that inhibit the current by half (IC50 value)
T1 construct: expressed in transfected cells; host or cells: COS-7 cells, selected with 0.8 mg/mL geneticin
T1 sequence (P22001 whole entry): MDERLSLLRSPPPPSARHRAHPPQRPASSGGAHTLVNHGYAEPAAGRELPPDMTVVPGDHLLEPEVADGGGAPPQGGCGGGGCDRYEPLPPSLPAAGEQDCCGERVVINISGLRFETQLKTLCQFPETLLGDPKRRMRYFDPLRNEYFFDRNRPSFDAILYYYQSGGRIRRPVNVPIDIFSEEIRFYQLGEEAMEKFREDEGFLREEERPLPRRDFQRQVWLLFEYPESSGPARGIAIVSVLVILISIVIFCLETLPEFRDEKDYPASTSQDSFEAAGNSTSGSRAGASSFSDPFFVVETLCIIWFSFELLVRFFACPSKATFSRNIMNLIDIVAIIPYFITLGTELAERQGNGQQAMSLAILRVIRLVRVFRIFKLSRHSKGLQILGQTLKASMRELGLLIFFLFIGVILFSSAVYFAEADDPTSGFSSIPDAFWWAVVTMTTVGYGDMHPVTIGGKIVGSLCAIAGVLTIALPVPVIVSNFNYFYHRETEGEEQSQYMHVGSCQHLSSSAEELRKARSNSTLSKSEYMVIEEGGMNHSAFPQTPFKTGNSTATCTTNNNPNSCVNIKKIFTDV
Experimental: COS-7 cells were cultured in a DMEM medium containing 10% fetal calf serum, at 37° C, 5% CO2. The recombinant plasmids of potassium channel Kv1.3 were transfected by using a Sofast™ transfection kit, and the transfected cells were selectively cultured in a medium containing 0.8 mg/mL geneticin. The pharmacological activities of scorpion active polypeptides ADMR-011, ADMR-016, ADMR-019, ADMR-023 and ADMR-028 were tested and analyzed by using an instrument of whole-cell patch clamp (EPC-10 dual-channel patch clamp amplifier HEKA, Elektronik, Lambrecht, Germany). The setting of the experimental parameters, the collecting of data, and the applying of stimulus were all controlled by Pulse software (Elektronik, Lambrecht, Germany). The filter of the instrument was set to be 10 kHz (Bessel), and the electrode impedance was 2∼5 MΩ. After the formation of giga-seal (1∼5 GΩ) between the electrode and cell membrane, an automatic c-fast was performed, and the membrane was broken by slightly applying negative pressure, then an automatic c-slow was performed. At a holding potential of -70 mV, depolarizing pulses, incrementing in 10 mV steps, with a step width of 80 ms , were given to stimulate from -60 mV to +50 mV, and the condition of current was observed. The polypeptides ADMR-011, ADMR-016 and ADMR-019 were accurately perfused, which was achieved by MPS-2 (INBIO Inc, Wuhan, China) perfusing system. After dissolving the three scorpion active polypeptides, they were applied by spraying via DAD Drug Application System (ALA), and the tip of the tube for drug application was about 100 µm away from the cell being recorded.
It can be known from Figure 16 to Figure 20 that, the pharmacological activity of ADMR-011 on potassium channel Kvl.3 was 91 pM, the pharmacological activity of ADMR-016 on potassium channel Kvl.3 was 2.58 nM, the pharmacological activity of ADMR-019 on potassium channel Kv1.3 was 1.41 nM, and the pharmacological activity of ADMR-023 and ADMR-028 on potassium channel Kvl.3 were 0.49 nM and 0.65 nM, respectively. Therefore, they are polypeptides with potent activity that are currently found internationally.

Row | Structure (SMILES) | Average clinical scores (Wistar rat EAE model; 8 d) | Average clinical scores (Wistar rat EAE model; 10 d) | Average clinical scores (Wistar rat EAE model; 12 d) | Average clinical scores (Wistar rat EAE model; 14 d) | Score of joint (rheumatoid arthritis; 10 d) | Score of joint (rheumatoid arthritis; 15 d) | Score of joint (rheumatoid arthritis; 21 d) | The swelling degree after the inflammation (rheumatoid arthritis; d8) [mL] | The swelling degree after the inflammation (rheumatoid arthritis; d15) [mL] | The swelling degree after the inflammation (rheumatoid arthritis; d22) [mL] | The swelling degree after the inflammation (rheumatoid arthritis; d28) [mL] | toxicity in mice (Kunming mice) | IC50 (potassium channel Kv1.3) [pM]
1 | CC[C@H](C)[C@@H]1NC(=O)CNC(=O)[C@H](CCC(=O)O)NC(=O)[C@@H]2CSSC[C@@H](C(=O)N[C@@H](Cc3ccc(O)cc3)C(=O)N[C@@H](CCCNC(=N)N)C(=O)O)NC(=O)[C@H](C(C)C)NC(=O)[C@@H]3CSSC[C@H](NC(=O)[C@H](CCC(=O)O)NC(=O)[C@H](CO)NC(=O)[C@H](CO)NC(=O)CNC(=O)[C@H](CC(N)=O)NC(=O)[C@@H](NC(=O)[C@H](CCC(=O)O)NC(=O)[C@H](CCCCN)NC(=O)[C@H](CO)NC(=O)[C@@H](NC(=O)[C@H](Cc4ccc(O)cc4)NC(=O)[C@@H](NC(=O)[C@@H](N)CCC(N)=O)[C@@H](C)CC)[C@@H](C)O)CSSC[C@H](NC(=O)[C@H](CCCCN)NC(=O)CNC(=O)[C@H](CO)NC(=O)[C@H](CCCNC(=N)N)NC(=O)[C@H](CCCCN)NC(=O)CNC(=O)[C@H]([C@@H](C)O)NC1=O)C(=O)N[C@@H]([C@@H](C)CC)C(=O)N[C@@H](CC(N)=O)C(=O)N[C@@H](CCCCN)C(=O)N[C@@H](CCCCN)C(=O)N3)C(=O)N[C@@H](Cc1ccc(O)cc1)C(=O)N[C@@H](CO)C(=O)N[C@@H](Cc1c[nH]cn1)C(=O)N2 [ADMR-011] (H-QIYTSKECNGSSECYSHCEGITGKRSGKCINKKCVCYR-OH; disulfide 8-29, 14-34, 18-36 (inferred); N-terminus and C-terminus assumed) | 0.47±0.18 | 0.75±0.21 | 0.83±0.35 | 0.95±0.37 | 1.63±0.57 | 2.07±0.65 | 1.62±0.59 | 0.041 ± 0.012 | 0.21 ± 0.06 | 0.29 ± 0.09 | 0.24 ± 0.13 | no significant toxicity | 91
2 | CC[C@H](C)[C@H](NC(=O)CNC(=O)[C@@H](N)C(C)C)C(=O)N[C@@H](CC(N)=O)C(=O)N[C@H](C(=O)N[C@@H](CCC(N)=O)C(=O)N[C@H]1CSSC[C@@H]2NC(=O)[C@H](CCC(N)=O)NC(=O)CNC(=O)[C@H](Cc3ccccc3)NC(=O)[C@H](CCCNC(=N)N)NC(=O)[C@H](CCSC)NC(=O)CNC(=O)[C@H](C)NC(=O)[C@H](CC(=O)O)NC(=O)[C@H](CCCCN)NC(=O)[C@@H]3CSSC[C@@H](C(=O)N[C@H](C(=O)N4CCC[C@H]4C(=O)N[C@@H](CCCCN)C(=O)O)[C@@H](C)O)NC(=O)[C@H](CC(=O)O)NC(=O)[C@H](CSSC[C@H](NC(=O)[C@H](CCC(N)=O)NC(=O)CNC(=O)[C@H](CO)NC(=O)[C@H](Cc4c[nH]cn4)NC(=O)[C@H](CC(N)=O)NC1=O)C(=O)N[C@@H](CC(C)C)C(=O)N[C@@H](CCCCN)C(=O)N1CCC[C@H]1C(=O)N3)NC(=O)[C@H](CCCCN)NC(=O)CNC(=O)[C@H](CC(N)=O)NC(=O)[C@H]([C@@H](C)CC)NC2=O)C(C)C [ADMR-023] (H-VGINVQCNHSGQCLKPCKDAGMRFGQCINGKCDCTPK-OH; disulfide 7-27, 13-32, 17-34 (inferred); N-terminus and C-terminus assumed) | 0.55±0.19 | 0.81±0.29 | 1.21±0.25 | 1.17±0.27 | 1.69±0.23 | 2.23±0.71 | 1.85±0.59 | 0.035 ± 0.010 | 0.25 ± 0.08 | 0.32 ± 0.14 | 0.29 ± 0.15 | no significant toxicity | 490
